Assay results reported in US4529733A, “Antihypertensive 3-furoyl-1,4-dihydropyridines” (Merrell Dow Pharmaceuticals Inc., priority 1983, dated 1985).

Key:
[1] = target: T1, K^+ -depolarized taenia preparations from the guinea pig caecum (Cavia porcellus, UniProt O35505); experiment: Calcium antagonism in K+-depolarized taenia preparations (displacement of Ca++ concentration-response curves); assay type: cell-based; settings: for Kb: calculated, against Ca++, read-out: pA2 (converted)
T1 construct: taenia preparations from the guinea pig caecum; from tissue; host or cells: guinea pig caecum, taenia (smooth muscle)
Source text: Pharmacol., 38, 234 (1982). […] Pharmacol., 318, 234 (1982)].

[2] = tested on: conscious spontaneously hypertensive rats (stroke prone strain); experiment: Anti-hypertensive effect in conscious spontaneously hypertensive rats (stroke prone strain); assay type: in vivo, rat
Procedure: In this test, the test compound is injected in an indwelling cannula in the femoral vein and blood pressure is measured by an indwelling catheter in the femoral artery. Heart rate is also measured.

[3] = tested on: K^+ -depolarized taenia preparations from guinea pig caecum; experiment: Inhibition of 45Ca++ uptake in K+-depolarized taenia preparations; assay type: cell-based; settings: 0.1 and 1 μM; 20 minutes incubation
Procedure: In this procedure, strips of taenia are incubated in Ca^++ -free buffer (composition, mM: NaCl, 97; KCl, 40; glucose, 5.5, HEPES buffer, 10; pH 7.0) at 35° C. and gassed with oxygen. The preparations thus prepared are then incubated with the test compound for 20 minutes after which ^45 Ca^++ /Ca^++ is added (1 mM for 10 minutes). Extracellular Ca^++ is displaced with lanthanum (50 mM) at 0°-4° C.

[4] = tested on: pentobarbitone-anesthetized rats; experiment: Anti-hypertensive effect in pentobarbitone-anesthetized rats; assay type: in vivo, rat; settings: for Change in diastolic blood pressure / Change in heart rate: pentobarbitone-anesthetized rats
Procedure: In this test, rats, anesthetized with a 45 to 60 mg/kg dose (i.p.) of sodium pentabarbitone, receive the test compound by injection by means of an indwelling cannula in the femoral vein. Diastolic blood pressure is measured by an indwelling catheter in the femoral artery. Heart rate is also measured.

[5] = tested on: pithed rats; experiment: Anti-hypertensive activity in pithed rats (blood pressure elevated by angiotensin II infusion); assay type: in vivo, rat; settings: for bradycardia / diastolic blood pressure, elevated by an infusion of angiotensin II: i.v., result in words

T1 sequence (O35505 whole entry): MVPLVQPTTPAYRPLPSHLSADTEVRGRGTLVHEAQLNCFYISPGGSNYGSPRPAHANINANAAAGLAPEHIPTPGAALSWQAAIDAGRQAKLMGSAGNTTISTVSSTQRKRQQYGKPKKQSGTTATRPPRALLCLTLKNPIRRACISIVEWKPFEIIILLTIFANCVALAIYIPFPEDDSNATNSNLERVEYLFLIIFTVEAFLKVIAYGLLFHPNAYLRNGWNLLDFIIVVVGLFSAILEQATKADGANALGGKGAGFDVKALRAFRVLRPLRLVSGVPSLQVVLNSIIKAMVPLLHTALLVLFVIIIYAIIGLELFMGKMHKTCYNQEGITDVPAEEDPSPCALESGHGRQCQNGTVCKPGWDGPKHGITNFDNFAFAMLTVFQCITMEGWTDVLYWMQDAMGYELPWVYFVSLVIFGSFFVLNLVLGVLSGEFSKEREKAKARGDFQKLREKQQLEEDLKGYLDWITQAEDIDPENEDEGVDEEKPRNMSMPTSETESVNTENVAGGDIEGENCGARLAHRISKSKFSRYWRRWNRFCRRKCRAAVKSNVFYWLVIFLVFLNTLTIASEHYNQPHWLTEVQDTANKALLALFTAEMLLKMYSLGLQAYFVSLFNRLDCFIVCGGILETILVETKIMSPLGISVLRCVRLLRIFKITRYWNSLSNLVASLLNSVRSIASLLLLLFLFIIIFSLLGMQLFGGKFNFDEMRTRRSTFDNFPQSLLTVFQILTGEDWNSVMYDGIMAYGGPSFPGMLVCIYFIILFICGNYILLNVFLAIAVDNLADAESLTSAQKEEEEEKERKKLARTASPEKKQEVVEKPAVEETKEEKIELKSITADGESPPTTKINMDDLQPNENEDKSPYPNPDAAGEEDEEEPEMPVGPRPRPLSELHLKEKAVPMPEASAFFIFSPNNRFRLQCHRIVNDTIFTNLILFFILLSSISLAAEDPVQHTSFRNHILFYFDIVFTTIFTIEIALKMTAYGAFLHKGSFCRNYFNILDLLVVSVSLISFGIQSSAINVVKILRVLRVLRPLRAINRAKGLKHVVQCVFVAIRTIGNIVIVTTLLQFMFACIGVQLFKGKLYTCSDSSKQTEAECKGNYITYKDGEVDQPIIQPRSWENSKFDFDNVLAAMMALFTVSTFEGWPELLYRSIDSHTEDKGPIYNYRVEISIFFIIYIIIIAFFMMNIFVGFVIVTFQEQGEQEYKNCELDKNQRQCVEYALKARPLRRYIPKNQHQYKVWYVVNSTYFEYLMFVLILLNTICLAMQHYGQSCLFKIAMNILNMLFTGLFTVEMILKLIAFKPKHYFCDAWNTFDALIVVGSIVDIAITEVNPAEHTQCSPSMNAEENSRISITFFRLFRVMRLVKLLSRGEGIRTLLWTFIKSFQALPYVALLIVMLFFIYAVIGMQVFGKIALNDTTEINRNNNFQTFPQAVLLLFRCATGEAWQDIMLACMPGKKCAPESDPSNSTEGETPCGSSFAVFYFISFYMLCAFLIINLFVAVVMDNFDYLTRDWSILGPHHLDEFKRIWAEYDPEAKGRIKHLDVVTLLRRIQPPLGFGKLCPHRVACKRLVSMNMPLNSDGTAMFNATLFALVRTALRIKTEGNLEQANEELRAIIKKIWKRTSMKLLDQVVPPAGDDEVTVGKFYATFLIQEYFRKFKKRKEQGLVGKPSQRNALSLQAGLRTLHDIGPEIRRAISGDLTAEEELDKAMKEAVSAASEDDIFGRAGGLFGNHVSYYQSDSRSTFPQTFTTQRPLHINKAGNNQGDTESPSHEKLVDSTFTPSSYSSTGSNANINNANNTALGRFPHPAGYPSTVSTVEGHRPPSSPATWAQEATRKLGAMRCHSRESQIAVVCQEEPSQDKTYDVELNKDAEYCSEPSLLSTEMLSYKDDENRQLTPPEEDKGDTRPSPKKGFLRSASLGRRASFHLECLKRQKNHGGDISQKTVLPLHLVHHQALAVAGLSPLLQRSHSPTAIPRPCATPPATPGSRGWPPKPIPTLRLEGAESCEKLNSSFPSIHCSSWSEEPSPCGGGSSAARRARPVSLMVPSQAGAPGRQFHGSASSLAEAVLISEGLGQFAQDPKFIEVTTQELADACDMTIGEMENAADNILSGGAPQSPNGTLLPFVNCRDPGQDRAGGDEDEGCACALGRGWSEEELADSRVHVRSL

COC(=O)C1=C(C)NC(C)=C(C(=O)c2ccco2)C1c1ccccc1[N+](=O)[O-] (stereo not drawn) [Compound A, 3-(2-furoyl)-5-methoxycarbonyl-2,6-dimethyl-4-(2-nitrophenyl)-1,4-dihydropyridine]
displacement of concentration-response curves to Ca++ [1]: caused a concentration-dependent displacement to the right | Kb [1]: 1.78 nM | Fall in mean blood pressure ([2]; 100 nmol/kg i.v.): 4.5 ± 1.5 mm Hg | Increase in heart rate ([2]; 100 nmol/kg i.v.): 20.0 ± 3.2 beats/min | Fall in mean blood pressure ([2]; 300 nmol/kg i.v.): 20.5 ± 1.5 mm Hg | Increase in heart rate ([2]; 300 nmol/kg i.v.): 70.0 ± 4.2 beats/min | Fall in mean blood pressure ([2]; 1000 nmol/kg i.v.): 42.5 ± 1.8 mm Hg | Increase in heart rate ([2]; 1000 nmol/kg i.v.): 118.0 ± 16.3 beats/min | Fall in mean blood pressure ([2]; 3000 nmol/kg i.v.): 56.6 ± 1.4 mm Hg | Increase in heart rate ([2]; 3000 nmol/kg i.v.): 136.3 ± 11.1 beats/min | blood pressure ([2]; i.v., result in words): significantly reduced blood pressure in a dose-dependent manner | reflex tachycardia ([2]; i.v., result in words): produced reflex tachycardia | uptake of 45Ca++ into the tissue [3]: reduced uptake | blood pressure in anesthetized rats ([4]; anesthetized rats, i.v., result in words): reduced blood pressure in anesthetized rats in a dose-dependent manner | Change in diastolic blood pressure ([4]; 10 nmol/kg i.v.): 86.0 ± 3.3 % control | Change in heart rate ([4]; 10 nmol/kg i.v.): 103.5 ± 0.9 % control | Change in diastolic blood pressure ([4]; 30 nmol/kg i.v.): 80.2 ± 3.2 % control | Change in heart rate ([4]; 30 nmol/kg i.v.): 106.2 ± 2.0 % control | Change in diastolic blood pressure ([4]; 100 nmol/kg i.v.): 55.0 ± 2.8 % control | Change in heart rate ([4]; 100 nmol/kg i.v.): 107.1 ± 3.6 % control | Change in diastolic blood pressure ([4]; 300 nmol/kg i.v.): 54.6 ± 1.9 % control | Change in heart rate ([4]; 300 nmol/kg i.v.): 106.7 ± 3.1 % control | Change in diastolic blood pressure ([4]; 1000 nmol/kg i.v.): 46.7 ± 1.6 % control | Change in heart rate ([4]; 1000 nmol/kg i.v.): 104.0 ± 1.8 % control | Change in diastolic blood pressure ([4]; 3000 nmol/kg i.v.): 46.6 ± 1.6 % control | Change in heart rate ([4]; 3000 nmol/kg i.v.): 102.2 ± 2.2 % control | Change in diastolic blood pressure ([4]; 10000 nmol/kg i.v.): 32.4 ± 2.0 % control | Change in heart rate ([4]; 10000 nmol/kg i.v.): 99.9 ± 3.4 % control | Change in diastolic blood pressure ([5]; 3 nmol/kg i.v.): 82.2 ± 5.3 % control | Change in heart rate ([5]; 3 nmol/kg i.v.): 98.1 ± 0.9 % control | Change in diastolic blood pressure ([5]; 10 nmol/kg i.v.): 72.3 ± 4.9 % control | Change in heart rate ([5]; 10 nmol/kg i.v.): 93.7 ± 1.7 % control | Change in diastolic blood pressure ([5]; 30 nmol/kg i.v.): 62.4 ± 3.5 % control | Change in heart rate ([5]; 30 nmol/kg i.v.): 90.9 ± 2.5 % control | Change in diastolic blood pressure ([5]; 100 nmol/kg i.v.): 52.0 ± 3.8 % control | Change in heart rate ([5]; 100 nmol/kg i.v.): 81.1 ± 3.3 % control | Change in diastolic blood pressure ([5]; 300 nmol/kg i.v.): 45.0 ± 1.6 % control | Change in heart rate ([5]; 300 nmol/kg i.v.): 74.2 ± 3.4 % control | Change in diastolic blood pressure ([5]; 1000 nmol/kg i.v.): 36.4 ± 1.8 % control | Change in heart rate ([5]; 1000 nmol/kg i.v.): 67.9 ± 3.4 % control | Change in diastolic blood pressure ([5]; 3000 nmol/kg i.v.): 32.9 ± 1.8 % control | Change in heart rate ([5]; 3000 nmol/kg i.v.): 64.3 ± 3.4 % control | bradycardia [5]: dose-dependent bradycardia | diastolic blood pressure, elevated by an infusion of angiotensin II [5]: significantly reduced

CCOC(=O)C1=C(C)NC(C)=C(C(=O)c2ccco2)C1c1ccccc1[N+](=O)[O-] (stereo not drawn) [Compound B, 3-(2-furoyl)-5-ethoxycarbonyl-2,6-dimethyl-4-(2-nitrophenyl)-1,4-dihydropyridine]
displacement of concentration-response curves to Ca++ [1]: caused a concentration-dependent displacement to the right | Kb [1]: 4.57 nM | Change in diastolic blood pressure ([5]; 10 nmol/kg i.v.): 80.6 ± 2.8 % control | Change in heart rate ([5]; 10 nmol/kg i.v.): 94.1 ± 0.5 % control | Change in diastolic blood pressure ([5]; 30 nmol/kg i.v.): 67.9 ± 3.0 % control | Change in heart rate ([5]; 30 nmol/kg i.v.): 90.4 ± 1.3 % control | Change in diastolic blood pressure ([5]; 100 nmol/kg i.v.): 47.7 ± 2.4 % control | Change in heart rate ([5]; 100 nmol/kg i.v.): 85.7 ± 1.5 % control | Change in diastolic blood pressure ([5]; 300 nmol/kg i.v.): 45.6 ± 3.9 % control | Change in heart rate ([5]; 300 nmol/kg i.v.): 84.1 ± 3.4 % control | Change in diastolic blood pressure ([5]; 1000 nmol/kg i.v.): 39.1 ± 2.1 % control | Change in heart rate ([5]; 1000 nmol/kg i.v.): 76.6 ± 3.4 % control | Change in diastolic blood pressure ([5]; 3000 nmol/kg i.v.): 37.1 ± 0.8 % control | Change in heart rate ([5]; 3000 nmol/kg i.v.): 72.2 ± 3.4 % control | bradycardia [5]: dose-dependent bradycardia | diastolic blood pressure, elevated by an infusion of angiotensin II [5]: significantly reduced
